Results from patent US4900719A, “Nitrosothiols as hypotensive agents” (The Ohio State University, priority 1988, dated 1990).

How the values were obtained:
anesthetized dogs [1] = experiment: arterial blood pressure after intravenous injection in anesthetized dogs (Examples 2 and 3); assay type: in vivo; settings: intravenous injection in dextrose
[2] = stability of other nitrosothiols (qualitative statement); assay type: physicochemical
[3] = storage stability of solid GSNO (absorbance at 544 nm); assay type: physicochemical
Experimental: In air at 4° no change in the characteristic original absorbance at 544 nm was observed after 32 days. At room temperature, 75% of that absorption remained after the same period.

anesthetized dogs [4] = experiment: mean arterial pressure during venous infusion in anesthetized dogs; assay type: in vivo, mongrel dogs
Experimental: (§1) Fifty milligrams of SNP (Nipride, Roche Laboratories) was reconstituted in 250 ml of 5% dextrose in water. A GSNO solution was diluted as 50 ug/ml in 5% dextrose in water. Seven mongrel dogs (18.1-31.8 kg) and seven cynomologus monkeys (Macaca fascicularis; 4.4-9.0 kg) were used in the study. The animals were given a pre-anesthetic (monkeys--Ketamine HCl, 10 mg/kg I.M.; dogs--0.2 mg/kg fentanyl and 1 mg/kg droperidol, Innovar Vet I.V.) and anesthetized with a mixture of α-chloralose (50 mg/kg) and urethane (500 mg/kg) given as an intravenous injection. The left femoral artery and vein were cannulated with heparinized saline-filled catheters. Arterial pressure was obtained from the arterial catheter using an electromedics MS-20 solid state pressure transducer and recorded on a Gould 2400 chart recorder. Randomized venous infusions of GSNO (n=7) and SNP (n=5) were made using Harvard apparatus compact infusion pump model 976. The infusion was maintained until a new steady state value for mean arterial pressure had been obtained for each infusion rate. The infusion rate was varied over the following ranges: GSNO 1.5-38.9 μg/kg/min (8 levels) and SNP 1.7-43.8 μg/kg/min (6 levels).
(§2) Intravenous administrations of GSNO or SNP in a wide range of doses decreased systematic arterial pressure in a dose related fashion. […]

anesthetized monkeys = experiment: mean arterial pressure during venous infusion in anesthetized monkeys; assay type: in vivo, cynomologus monkeys (Macaca fascicularis)
Experimental: as §1, §2

[5] = test system: anesthetized dogs and monkeys; experiment: venous infusion in anesthetized dogs and monkeys, collected animal data (response time, onset/dissipation, effective dosage); assay type: in vivo
Experimental: as §1
Intravenous administrations of GSNO or SNP in a wide range of doses decreased systematic arterial pressure in a dose related fashion. FIGS. 1 and 2 show the dose-response curves for the dogs and monkeys, respectively, that occurred by SNP or GSNO administrations. In each figure (.) presents the data for SNP and (o) presents the data for GSNO. The blood pressure lowering effect of SNP and GSNO is greater in monkeys than in dogs. When 20 μg/kg/min of SNP or GSNO was administered, mean arterial pressure decreased 35-40 torr for dogs and 45 torr for monkeys. The noted response time for SNP was about 28.6±2.5 sec. and for GSNO about 33.4±6.0 sec.
From the collected animal data, it can be noted that in general the decrease in blood pressure is dosage dependent.

Row | change in characteristic original absorbance at 544 nm ([3]; in air at 4°, after 32 days) | absorption at 544 nm remaining ([3]; room temperature, after 32 days) [%] | effect of exclusion of light and air on stability ([3]; storage for more than 30 days) | SMILES | lowering of arterial blood pressure (in words) (anesthetized dogs [1]) | stability (in words) [2] | blood pressure lowering (in words) (anesthetized dogs [4]; anesthetized dogs, venous infusion, to about the same extent as SNP) | decrease in mean arterial pressure (anesthetized dogs [4]; dogs, 20 μg/kg/min venous infusion) | blood pressure lowering (in words) (anesthetized monkeys; anesthetized monkeys, venous infusion, to about the same extent as SNP) | decrease in mean arterial pressure (anesthetized monkeys; monkeys, 20 μg/kg/min venous infusion) [torr] | onset and dissipation of effect ([5]; anesthetized dogs and monkeys, compared with SNP) | effective dosage to significantly lower arterial pressure ([5]; infusion administration, from the collected animal data) | response time ([5]; venous infusion, species not stated)
1 | – | – | – | C[C@H](CSN=O)C(=O)N1CCC[C@H]1C(=O)O [S-Nitrosocaptopril, D-(S-nitroso) 3-mercaptomethylpropionyl-L-proline] | Significant lowering of arterial blood pressure | quite stable | – | – | – | – | – | – | –
2 | no change | 75 | virtually no noticeable effect | N[C@@H](CCC(=O)N[C@@H](CSN=O)C(=O)NCC(=O)O)C(=O)O [GSNO, S-nitrosoglutathione] | – | – | significantly lowered blood pressure | 35-40 torr | significantly lowered blood pressure | 45 | essentially the same as obtained with SNP | at least 7 μg/1 kg animal weight/minute | about 33.4±6.0 sec.
